Results taken from PubChem BioAssay AID651861 (The Scripps Research Institute Molecular Screening Center, 2012).

Assays:
Test in all cases: binding mode on PAD1, PAD2, PAD3, biochemical, colorimetric, substrate dialysis, late-stage follow-up (AID 651861)
[1] = molecular target: Protein-arginine deiminase type-2 (Homo sapiens) (UniProt Q9Y2J8); conditions: recombinant PAD1-3, post-dialysis BAEE citrulline colorimetric; PAD2; at 100 µM; stronger effect = lower value
[2] = molecular target: Protein-arginine deiminase type-3 (Homo sapiens) (UniProt Q9ULW8); conditions: recombinant PAD1-3, post-dialysis BAEE citrulline colorimetric; PAD3; at 100 µM; stronger effect = lower value
[3] = molecular target: Protein-arginine deiminase type-1 (Homo sapiens) (UniProt Q9ULC6); conditions: recombinant PAD1-3, post-dialysis BAEE citrulline colorimetric; PAD1; at 100 µM; stronger effect = lower value
Sequence of Protein-arginine deiminase type-1 (Homo sapiens) (Q9ULC6 whole entry, looked up): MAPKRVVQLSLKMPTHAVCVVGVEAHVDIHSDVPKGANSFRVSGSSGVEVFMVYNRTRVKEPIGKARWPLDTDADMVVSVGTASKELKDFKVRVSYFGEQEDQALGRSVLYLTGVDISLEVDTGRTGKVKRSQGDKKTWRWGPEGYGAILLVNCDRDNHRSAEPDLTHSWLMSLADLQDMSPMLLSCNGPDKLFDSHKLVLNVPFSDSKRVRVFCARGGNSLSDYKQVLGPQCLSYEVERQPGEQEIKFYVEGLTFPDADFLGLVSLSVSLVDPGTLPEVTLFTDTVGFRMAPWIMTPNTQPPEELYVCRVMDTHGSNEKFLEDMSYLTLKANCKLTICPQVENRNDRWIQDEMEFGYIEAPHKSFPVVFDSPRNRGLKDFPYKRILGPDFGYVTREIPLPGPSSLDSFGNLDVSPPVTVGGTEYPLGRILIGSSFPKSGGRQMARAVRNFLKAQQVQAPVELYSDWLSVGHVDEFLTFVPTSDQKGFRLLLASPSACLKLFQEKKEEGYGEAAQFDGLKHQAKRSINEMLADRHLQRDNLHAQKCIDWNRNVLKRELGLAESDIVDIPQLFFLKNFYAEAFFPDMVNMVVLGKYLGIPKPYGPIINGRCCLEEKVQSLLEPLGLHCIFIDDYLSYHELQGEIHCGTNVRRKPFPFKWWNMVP

Sequence of Protein-arginine deiminase type-3 (Homo sapiens) (Q9ULW8 whole entry, looked up): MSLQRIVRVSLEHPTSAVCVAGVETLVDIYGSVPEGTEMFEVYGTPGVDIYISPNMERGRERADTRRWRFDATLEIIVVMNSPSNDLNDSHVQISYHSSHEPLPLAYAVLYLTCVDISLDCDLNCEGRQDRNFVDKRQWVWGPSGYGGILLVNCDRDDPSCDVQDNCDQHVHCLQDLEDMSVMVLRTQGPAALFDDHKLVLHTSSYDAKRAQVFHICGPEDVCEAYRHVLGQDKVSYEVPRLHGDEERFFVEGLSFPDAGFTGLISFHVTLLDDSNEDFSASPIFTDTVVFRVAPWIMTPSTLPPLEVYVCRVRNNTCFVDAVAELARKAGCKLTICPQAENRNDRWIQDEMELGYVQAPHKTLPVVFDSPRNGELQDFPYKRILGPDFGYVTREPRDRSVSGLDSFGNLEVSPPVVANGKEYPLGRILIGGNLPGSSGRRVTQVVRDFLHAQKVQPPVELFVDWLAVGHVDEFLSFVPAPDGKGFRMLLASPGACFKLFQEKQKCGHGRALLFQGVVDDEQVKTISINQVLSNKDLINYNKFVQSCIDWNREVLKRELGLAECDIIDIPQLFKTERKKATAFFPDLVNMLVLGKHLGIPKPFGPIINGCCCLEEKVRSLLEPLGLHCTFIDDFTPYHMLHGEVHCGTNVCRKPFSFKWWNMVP
Sequence of Protein-arginine deiminase type-2 (Homo sapiens) (Q9Y2J8 whole entry, looked up): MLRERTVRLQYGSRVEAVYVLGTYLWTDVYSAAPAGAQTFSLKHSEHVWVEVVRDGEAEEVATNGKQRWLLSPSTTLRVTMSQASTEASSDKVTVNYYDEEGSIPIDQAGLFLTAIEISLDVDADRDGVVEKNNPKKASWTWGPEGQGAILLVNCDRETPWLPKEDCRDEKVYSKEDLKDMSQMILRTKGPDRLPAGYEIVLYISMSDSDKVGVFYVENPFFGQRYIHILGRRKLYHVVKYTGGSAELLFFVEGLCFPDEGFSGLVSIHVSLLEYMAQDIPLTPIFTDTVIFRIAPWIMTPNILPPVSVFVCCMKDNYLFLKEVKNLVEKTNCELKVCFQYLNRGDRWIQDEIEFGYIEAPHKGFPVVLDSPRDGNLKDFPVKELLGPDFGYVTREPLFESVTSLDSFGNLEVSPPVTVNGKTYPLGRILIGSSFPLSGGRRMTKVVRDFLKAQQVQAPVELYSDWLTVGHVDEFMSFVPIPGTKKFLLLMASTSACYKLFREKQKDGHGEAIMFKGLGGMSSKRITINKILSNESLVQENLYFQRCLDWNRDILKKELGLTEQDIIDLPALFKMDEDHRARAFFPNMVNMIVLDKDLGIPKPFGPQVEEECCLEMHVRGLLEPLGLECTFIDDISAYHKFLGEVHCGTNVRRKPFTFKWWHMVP

- residual activity after dialysis [1]: 5.3%
- residual activity after dialysis [2]: 1.2%
- residual activity after dialysis [3]: 10.2%
Structure (SMILES): NC1=CC(=O)c2ccc(-c3cccc(C(=O)O)n3)nc2C1=O
